Here are results for 2 molecules from article PMC8508710, “Biochemical Characterization of 13-Lipoxygenases of Arabidopsis thaliana” (International Journal of Molecular Sciences, 2021).

Assay [1] relates to pea root LOX. Description: Ex vivo pea root extract LOX activity, oxygen electrode. The format is biochemical, Pisum sativum. Conditions: 36 µg pea root extract pretreated with 1 mM 12-OPDA. The method, then:
To evaluate 12-OPDA as a LOX inhibitor under native conditions, we employed pea roots as a plant LOX source. The reliability was assessed with the criterion that an increase in A234nm and, ideally, oxygen consumption occurred via the injection of plant tissue extract (0.5–2 µg/µL protein in 50 mM Tris-HCl or K-Pi, pH 6.6–8.0) in LeA (tested at 4–100 µM). […] Pea seeds (Pisum sativum “Kleine Rheinländerin”) were placed in darkness for 4 days on moist paper. The emerged roots were cut, frozen in liquid N2, and stored at −80 °C. Frozen tissue (~50 mg/mL) was pulverized in a pre-chilled mortar and immediately ground with 50 mM Tris-HCl, pH 7.2. […]
The immunological detection of 13-LOX was performed, based on. […] After 1 h blocking with blocking solution (1% (w/v) non-fat dry milk in TBST (150 mM NaCl, 50 mM Tris-HCl, pH 7.5, 0.05% tween 20)) and overnight incubation (4 °C) with LOX2 (At3g45140) serum (Agrisera, AS07 258, 1:25,000 in blocking solution), the blot was washed with TBST and incubated (2 h, 25 °C) with horseradish peroxidase-coupled anti-rabbit IgG as second antibody (1:20,000 in blocking solution) for the subsequent luminescence detection of immunodecorated LOX on X-ray films (30 s incubation). […] The mixture was injected in 1.8 mL of 20 µM LeA (in 50 mM Tris-HCl, pH 7.2) and recorded for oxygen consumption.

In assay [2] the target is T1, LOX4 (Arabidopsis thaliana, UniProt Q9FNX8).
T1 sequence (Q9FNX8 71-926): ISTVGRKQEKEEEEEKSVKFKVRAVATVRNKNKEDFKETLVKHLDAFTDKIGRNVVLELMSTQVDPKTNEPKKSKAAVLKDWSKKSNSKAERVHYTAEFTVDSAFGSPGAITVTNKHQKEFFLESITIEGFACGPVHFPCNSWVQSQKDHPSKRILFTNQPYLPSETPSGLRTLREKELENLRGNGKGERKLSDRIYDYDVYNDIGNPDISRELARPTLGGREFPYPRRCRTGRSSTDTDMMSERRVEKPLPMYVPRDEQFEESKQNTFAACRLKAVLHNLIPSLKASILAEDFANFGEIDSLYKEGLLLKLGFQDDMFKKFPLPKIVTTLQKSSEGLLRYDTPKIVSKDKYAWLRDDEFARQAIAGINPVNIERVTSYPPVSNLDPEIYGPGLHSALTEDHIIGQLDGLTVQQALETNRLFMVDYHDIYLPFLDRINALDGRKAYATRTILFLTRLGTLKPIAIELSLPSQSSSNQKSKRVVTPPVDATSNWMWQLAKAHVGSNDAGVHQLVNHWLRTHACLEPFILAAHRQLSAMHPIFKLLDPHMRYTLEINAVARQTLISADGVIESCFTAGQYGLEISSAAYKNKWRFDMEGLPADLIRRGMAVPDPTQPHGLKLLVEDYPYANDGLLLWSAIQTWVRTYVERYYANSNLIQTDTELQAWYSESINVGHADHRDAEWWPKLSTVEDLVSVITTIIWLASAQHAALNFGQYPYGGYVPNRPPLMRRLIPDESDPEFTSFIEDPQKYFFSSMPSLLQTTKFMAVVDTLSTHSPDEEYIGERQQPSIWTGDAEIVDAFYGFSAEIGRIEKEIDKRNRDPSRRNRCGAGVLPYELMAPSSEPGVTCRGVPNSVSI
Nature of the assay: Intrinsic fluorescence of LOX4. The format is binding. The settings on record: 156 µM chemical; λExc = 280 nm; control 98.1 ± 3.9. On the set-up: made in house; host or cells: E. coli Nico21(DE3), pET15b. The method, then:
Figure 5 Analysis of the interaction of 12-OPDA and MJ with LOX4. […] LOX4 (0.22 µg/µL) was incubated with compounds at indicated concentrations for 10 min at 30 °C, and residual LOX activity was measured spectrophotometrically by the injection of 3 µL incubation mixture into 123 µL LeA (4.8 µM in 50 mM Tris-HCl, pH 7.2). […] (B) Intrinsic fluorescence of LOX4 incubated with 12-OPDA, MJ and solvent (control). Here, 120 µL LOX4 (0.2 µg/µL) was mixed with 15 µL chemical (1.4 mM in 50 mM K-Pi, pH 8.0) or solvent (control) and analyzed for intrinsic fluorescence emission after excitation at λExc = 280 nm. Mean graphs are shown (n = 4).

The target in assay [3] is T1, LOX4. Nature of the assay: Free thiols of LOX4 (Ellman, DTNB). Set-up: made in house; host or cells: E. coli Nico21(DE3), pET15b. Conditions: LOX4 4.2 µM incubated 20 min with 12-OPDA; control 7.6 ± 0.1. The method, then: The iron content was analyzed as described. Free protein thiols were determined as described in [80] with slight variations. Briefly, 150 µL LOX4 (4.2 µM) was mixed with 1.5 µL 30 mM 12-OPDA (in EtOH) or EtOH (solvent control). After 20 min of incubation at 25 °C, samples were mixed with 10 µL dithionitrobencene (DTNB, 2 mM in 40 mM K-Pi, pH 8.0) and incubated for 30 min in the dark. Samples were measured at 412 nm, ε412nm = 13,600 […] (KC4 microplate reader, Biotec, 25 °C) for determination of the thiol/protein ratio with background correction (150 µL 40 mM K-Pi, pH 8.0, 10 µL DTNB 2 mM, 1.5 µL ligand stock or EtOH).
On the technique in general: DTNB colorimetry detects thiols as they appear.

With `CCC=CCC1C(=O)C=CC1CCCCCCCC(=O)O` (stereo not drawn) [12-OPDA, cis-(+)-12-oxophytodienoic acid], the Inhibition of activity result in assay [1] (20 µM LeA) was “about 43%”. Also, the Oxygen consumption in assay [1] (control 4.6 ± 0.5) is 2.0 ± 0.5 nmol/mL/min. Moreover, the “Relative fluorescence emission at 333 nm” value in assay [2] amounted to 86.2 ± 3.9. In assay [3], the “Free thiols (Cys residues) of LOX4 after incubation” value was found to be 5.9 ± 0.1 mol·mol^−1.

As to `CC/C=C\CC1C(=O)CCC1CC(=O)OC` (centres unmarked) [MJ, methyl jasmonate], the “Relative fluorescence emission at 333 nm” value in assay [2] is on record as 98.0 ± 2.4.
